In patent US8952024B2, “Herbicidal pyrimidone derivatives” (E I du Pont de Nemours and Company, priority 2009, dated 2015):

Tests used:
Assay type in all cases: in vivo
Details in all cases: Postemergence
[1] = tested on: Italian ryegrass (Lolium multiflorum); experiment: Test B pre-/postemergence plant response
Outline: (§1)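 Visual ratings on a 0–100 scale (100 = complete control) were made versus untreated controls 13–15 days after treatment in a greenhouse. Compounds in surfactant-containing non-phytotoxic solvent were applied preemergence to seeds in loam–sand blend or postemergence to 1- to 4-leaf plants (2–18 cm).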

[2] = tested on: bermudagrass (Cynodon dactylon); experiment: Test B pre-/postemergence plant response
Outline: as §1

[3] = tested on: lambsquarters (Chenopodium album); experiment: Test B pre-/postemergence plant response
Outline: as §1

[4] = tested on: pigweed (Amaranthus retroflexus); experiment: Test B pre-/postemergence plant response
Outline: as §1

[5] = tested on: ragweed (common ragweed, Ambrosia elatior); experiment: Test B pre-/postemergence plant response
Outline: as §1

[6] = tested on: wheat (Triticum aestivum); experiment: Test B pre-/postemergence plant response
Outline: as §1

[7] = tested on: canarygrass (Phalaris minor); experiment: Test B postemergence plant response
Outline: (§2)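 Visual ratings from 0 (no effect) to 100 (complete control), made against controls 13–15 days after treatment, kept in a greenhouse. Compounds were applied postemergence to potted plants at the 1- to 4-leaf stage (2–18 cm).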

[8] = tested on: chickweed (Stellaria media); experiment: Test B postemergence plant response
Outline: as §2

[9] = tested on: windgrass (Apera spica-venti); experiment: Test B postemergence plant response
Outline: as §2

[10] = tested on: winter barley (Hordeum vulgare); experiment: Test B postemergence plant response
Outline: as §2

[11] = 31 g ai/ha, 0 to 100 scale (0 no effect, 100 complete control)
[12] = 250 g ai/ha, scale 0 to 100 (0 no effect, 100 complete control), 13 to 15 days
[13] = 62 g ai/ha, scale 0 to 100 (0 no effect, 100 complete control)
[14] = 125 g ai/ha, scale 0 to 100 (0 no effect, 100 complete control)
[15] = 125 g ai/ha, scale 0 (no effect) to 100 (complete control), 13 to 15 days

Compound	Plant response rating, Ryegrass, Italian [1, 11]	Plant response rating, Ryegrass, Italian [1, 12]	Plant response rating, Ryegrass, Italian [1, 13]	Plant response rating, Bermudagrass [2, 11]	Plant response rating, Bermudagrass [2, 13]	Plant response rating, Lambsquarters [3, 11]	Plant response rating, Lambsquarters [3, 12]	Plant response rating, Lambsquarters [3, 13]	Plant response rating, Pigweed [4, 13]	Plant response rating, Ragweed [5, 11]	Plant response rating, Ragweed [5, 12]	Plant response rating, Ragweed [5, 13]	Plant response rating, Wheat [6, 11]	Plant response rating, Wheat [6, 12]	Plant response rating, Wheat [6, 13]	Plant response rating, Canarygrass [7, 11]	Plant response rating, Canarygrass [7, 12]	Plant response rating, Canarygrass [7, 13]	Plant response rating, Chickweed [8, 11]	Plant response rating, Chickweed [8, 12]	further results
CCCn1c(-c2ccccc2)ncc(C(=O)C2=C(O)C3CCC(C3)C2=O)c1=O (centres unmarked) [Compound 226]	0	20	0	80	80	90	98	90	85	80	90	85	10	30	15	5	60	30	75	95	Plant response rating, Bermudagrass [2, 14]: 85; Plant response rating, Bermudagrass [2, 12]: 98; Plant response rating, Lambsquarters [3, 14]: 95; Plant response rating, Pigweed [4, 11]: 75; Plant response rating, Pigweed [4, 12]: 98; Plant response rating, Canarygrass [7, 14]: 50; Plant response rating, Chickweed [8, 14]: 85; Plant response rating, Chickweed [8, 13]: 75; Plant response rating, Windgrass [9, 11]: 10; Plant response rating, Windgrass [9, 12]: 85; Plant response rating, Windgrass [9, 13]: 50; Plant response rating, Barley [10, 11]: 10; Plant response rating, Barley [10, 14]: 30; Plant response rating, Barley [10, 12]: 60; Plant response rating, Barley [10, 13]: 30
CCn1c(-c2cccc(F)c2)ncc(C(=O)C2=C(O)C3CCC(C3)C2=O)c1=O (centres unmarked) [Compound 236]	0	5	0	95	98	98	100	100	85	80	98	95	0	60	10	0	10	0	75	100	Plant response rating, Bermudagrass [2, 14]: 98; Plant response rating, Lambsquarters [3, 14]: 100; Plant response rating, Pigweed [4, 11]: 85; Plant response rating, Canarygrass [7, 14]: 0; Plant response rating, Chickweed [8, 14]: 100; Plant response rating, Chickweed [8, 13]: 100; Plant response rating, Windgrass [9, 11]: 30; Plant response rating, Windgrass [9, 12]: 85; Plant response rating, Windgrass [9, 13]: 50; Plant response rating, Barley [10, 11]: 0; Plant response rating, Barley [10, 14]: 0; Plant response rating, Barley [10, 12]: 0; Plant response rating, Barley [10, 13]: 0
CCCCn1c(-c2ccccc2)ncc(C(=O)C2=C(O)C3CCC(C3)C2=O)c1=O (centres unmarked) [Compound 240]	10	40	15	98	100	98	100	100	100	98	100	98	30	50	35	5	40	5	90	100	Plant response rating, Ryegrass, Italian [1, 15]: 40; Plant response rating, Bermudagrass [2, 15]: 100; Plant response rating, Bermudagrass [2, 12]: 100; Plant response rating, Lambsquarters [3, 15]: 100; Plant response rating, Pigweed [4, 15]: 100; Plant response rating, Pigweed [4, 12]: 100; Plant response rating, Ragweed [5, 15]: 100; Plant response rating, Wheat [6, 15]: 50; Plant response rating, Canarygrass [7, 15]: 30; Plant response rating, Chickweed [8, 15]: 100; Plant response rating, Chickweed [8, 13]: 98; Plant response rating, Windgrass [9, 11]: 60; Plant response rating, Windgrass [9, 15]: 98; Plant response rating, Windgrass [9, 12]: 98; Plant response rating, Windgrass [9, 13]: 80; Plant response rating, Barley [10, 11]: 5; Plant response rating, Barley [10, 15]: 15; Plant response rating, Barley [10, 12]: 15; Plant response rating, Barley [10, 13]: 5
